The source of these data is patent US20230159556A1, “NOVEL PROTEIN KINASE INHIBITORS” (TENOVA PHARMACEUTICALS INC., priority 2020, published 2023).

The target in data set [1] is Ba/F3_EGFR_del19/T790M/C797S cell (Homo sapiens, UniProt P00533, T790M/C797S, cells depend on it, form not given). Nature of the data set: BaF3 cell proliferation assay (CelltiterGlo, 72 hr). The format is cell-based. To be noted: 72 hr incubation; read-out: IC50 (nM, Ba/F3_EGFR_del19/T790M/C797S cell proliferation). How it is done: (§1) The BaF3 cell proliferation assay was performed at Pharmaron (www.pharmaron.com, Beijing, China). The Ba/F3_WT and Ba/F3_Del19/T790M/C797S cell lines were maintained in 1640 medium containing 10% FBS, 1*PS and 1*Glutamax. Only cells with viability greater than 90% are used for assays. Dispense 30 μl of cell suspension at 700/well into 384 well microplate, add 30 nl compound solution into 384 cell plate by Echo, cells were incubated for 72 hr in 37° C./5% CO2 incubator, add 30 μl reagent CelltiterGlo assay kit (CTG, Promega) per well and shake plates, incubate the plate (avoiding light) at 37° C./5% CO2 for 30 min. and read the luminescence by Envision. The luminescence values were converted to % Inhibition. Calculate IC50 by fitting % inhibition values and log of compound concentrations to nonlinear regression (dose response−variable slope) with Graphpad 5.0.
(§2) Y=Bottom+(Top−Bottom)/(1+10^((Log IC50−X)*HillSlope))
(§3) X: log of inhibitor concentration; Y: % Inhibition.
(In general: Cellular ATP, detected with luciferase, serves as a proxy for viable cell number.)

Another data set relates to Ba/F3_WT cell. The data set is described as above. The format is cell-based. To be noted: Mus musculus, 72 hr incubation. How it is done: as §1, §2, §3
The target of another data set is T1, EGFR_WT (Homo sapiens, UniProt P00533).
T1 construct: Reaction Biology Corporation (contract assay provider)
Kind of data set: In vitro biochemical kinase assay (33P-ATP filter-binding, Reaction Biology). As for the experimental part:
(§4) The biochemical kinase assay was performed at Reaction Biology Corporation (www.reactionbiology.com, Malvern, Pa.) following procedures described in the reference (Anastassiadis, T, et al, Nature Biotechnology, 2011, 29, 1039). Base Reaction buffer includes 20 mM Hepes (pH 7.5), 10 mM MgCl2, 1 mM EGTA, 0.02% Brij35, 0.02 mg/ml BSA, 0.1 mM Na3VO4, 2 mM DTT and 1% DMSO. Required cofactors are added individually to each kinase reaction. Testing compounds were dissolved in 100% DMSO to specific concentration. The serial dilution was conducted by Integra Viaflo Assist in DMSO. Compounds in 100% DMSO are into the kinase reaction mixture by Acoustic technology (Echo550; nanoliter range), incubate for 20 min at room temperature, followed by ^33P-ATP and incubation for 2 hours at room temperature. Radioactivity was then detected by filter-binding method. Kinase activity data were expressed as the percent remaining kinase activity in test samples compared to vehicle (dimethyl sulfoxide) reactions. IC50 values and curve fits were obtained using Prism (GraphPad Software).

The next data set addresses T2, EGFR_L858R/T790M/C797S (Homo sapiens, UniProt P00533, C797S/L858R/T790M).
T2 construct: Reaction Biology Corporation (contract assay provider)
The data set is described as above. How it is done:
as §4

For data set [2] the following is noted: ether bond, 25.0 °C, 16.0 h.
For data set [3] the following is noted: from COc1cc(N2CCN(C)CC2)c(CCCO)cc1Nc1ncc(Cl)c(Nc2ccc(O)cc2S(C)(=O)=O)n1; ether bond; 16-membered ring; PPh3/DIAD; THF; 18.8 mM.

Read-outs that look alike come from different tables or passages of the source.

T1 sequence (P00533 25-1210): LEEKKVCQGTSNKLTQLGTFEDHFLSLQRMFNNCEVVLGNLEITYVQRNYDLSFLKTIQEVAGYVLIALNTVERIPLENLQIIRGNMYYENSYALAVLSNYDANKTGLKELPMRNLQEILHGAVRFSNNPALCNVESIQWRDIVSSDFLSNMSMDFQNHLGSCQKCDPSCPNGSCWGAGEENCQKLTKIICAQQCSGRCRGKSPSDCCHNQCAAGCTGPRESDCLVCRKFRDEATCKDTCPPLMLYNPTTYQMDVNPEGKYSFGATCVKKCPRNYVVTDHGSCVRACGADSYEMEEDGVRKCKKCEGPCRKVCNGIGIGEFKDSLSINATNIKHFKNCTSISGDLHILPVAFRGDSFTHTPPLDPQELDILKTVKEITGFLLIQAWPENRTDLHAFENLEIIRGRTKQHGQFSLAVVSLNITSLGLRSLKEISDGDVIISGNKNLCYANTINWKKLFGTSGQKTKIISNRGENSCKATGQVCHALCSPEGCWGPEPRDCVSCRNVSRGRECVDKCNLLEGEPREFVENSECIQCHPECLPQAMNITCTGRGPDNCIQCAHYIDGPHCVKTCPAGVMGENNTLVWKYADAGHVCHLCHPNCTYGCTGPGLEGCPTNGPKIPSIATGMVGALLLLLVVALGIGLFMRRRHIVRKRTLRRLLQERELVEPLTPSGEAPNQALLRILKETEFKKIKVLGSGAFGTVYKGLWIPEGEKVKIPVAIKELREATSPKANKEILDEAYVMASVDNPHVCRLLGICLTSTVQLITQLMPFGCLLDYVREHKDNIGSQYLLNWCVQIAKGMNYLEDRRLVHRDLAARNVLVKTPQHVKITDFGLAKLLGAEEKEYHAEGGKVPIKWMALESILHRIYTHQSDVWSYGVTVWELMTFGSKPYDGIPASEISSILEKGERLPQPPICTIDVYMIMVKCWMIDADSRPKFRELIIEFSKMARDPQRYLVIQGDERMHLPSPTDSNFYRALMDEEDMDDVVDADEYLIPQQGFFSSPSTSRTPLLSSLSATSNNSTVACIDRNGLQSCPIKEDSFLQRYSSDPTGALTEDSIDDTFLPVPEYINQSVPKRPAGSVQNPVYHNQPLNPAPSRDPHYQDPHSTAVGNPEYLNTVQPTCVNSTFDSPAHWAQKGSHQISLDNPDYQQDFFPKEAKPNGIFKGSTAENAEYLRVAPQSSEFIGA
T2 sequence (P00533 25-1210 T790M/C797S/L858R): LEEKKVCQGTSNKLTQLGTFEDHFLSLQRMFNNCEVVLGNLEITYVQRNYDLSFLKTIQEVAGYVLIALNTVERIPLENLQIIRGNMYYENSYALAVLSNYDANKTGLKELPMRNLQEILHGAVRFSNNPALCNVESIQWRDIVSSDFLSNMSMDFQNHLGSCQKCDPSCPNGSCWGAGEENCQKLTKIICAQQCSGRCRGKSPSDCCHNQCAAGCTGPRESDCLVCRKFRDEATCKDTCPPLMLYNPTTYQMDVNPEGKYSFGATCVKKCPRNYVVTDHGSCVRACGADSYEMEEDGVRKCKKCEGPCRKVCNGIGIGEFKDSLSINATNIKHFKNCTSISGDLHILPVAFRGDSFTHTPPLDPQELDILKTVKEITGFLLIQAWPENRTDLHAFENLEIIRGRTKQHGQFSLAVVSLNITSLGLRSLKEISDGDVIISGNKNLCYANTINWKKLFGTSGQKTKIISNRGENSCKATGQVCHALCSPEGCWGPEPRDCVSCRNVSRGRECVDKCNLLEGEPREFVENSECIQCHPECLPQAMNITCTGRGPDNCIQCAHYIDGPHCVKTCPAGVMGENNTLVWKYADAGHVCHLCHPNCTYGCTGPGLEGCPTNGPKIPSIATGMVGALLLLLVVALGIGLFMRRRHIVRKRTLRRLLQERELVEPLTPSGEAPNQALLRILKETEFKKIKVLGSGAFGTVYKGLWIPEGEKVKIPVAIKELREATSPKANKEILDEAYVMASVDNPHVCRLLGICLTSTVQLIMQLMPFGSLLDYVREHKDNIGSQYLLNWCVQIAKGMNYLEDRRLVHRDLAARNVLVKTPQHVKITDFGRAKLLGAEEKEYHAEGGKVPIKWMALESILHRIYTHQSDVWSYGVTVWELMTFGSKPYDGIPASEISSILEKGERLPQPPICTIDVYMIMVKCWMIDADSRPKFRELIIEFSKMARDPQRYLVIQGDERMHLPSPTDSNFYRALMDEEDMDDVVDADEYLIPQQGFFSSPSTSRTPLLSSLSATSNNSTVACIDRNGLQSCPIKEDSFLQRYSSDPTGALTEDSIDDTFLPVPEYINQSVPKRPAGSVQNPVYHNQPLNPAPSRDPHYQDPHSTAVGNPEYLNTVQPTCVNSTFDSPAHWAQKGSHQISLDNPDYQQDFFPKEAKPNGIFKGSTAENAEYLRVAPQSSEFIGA
Ba/F3_EGFR_del19/T790M/C797S cell, sequence (P00533 with tags, fused parts or gaps DEL746-750/T790M/C797S, form open): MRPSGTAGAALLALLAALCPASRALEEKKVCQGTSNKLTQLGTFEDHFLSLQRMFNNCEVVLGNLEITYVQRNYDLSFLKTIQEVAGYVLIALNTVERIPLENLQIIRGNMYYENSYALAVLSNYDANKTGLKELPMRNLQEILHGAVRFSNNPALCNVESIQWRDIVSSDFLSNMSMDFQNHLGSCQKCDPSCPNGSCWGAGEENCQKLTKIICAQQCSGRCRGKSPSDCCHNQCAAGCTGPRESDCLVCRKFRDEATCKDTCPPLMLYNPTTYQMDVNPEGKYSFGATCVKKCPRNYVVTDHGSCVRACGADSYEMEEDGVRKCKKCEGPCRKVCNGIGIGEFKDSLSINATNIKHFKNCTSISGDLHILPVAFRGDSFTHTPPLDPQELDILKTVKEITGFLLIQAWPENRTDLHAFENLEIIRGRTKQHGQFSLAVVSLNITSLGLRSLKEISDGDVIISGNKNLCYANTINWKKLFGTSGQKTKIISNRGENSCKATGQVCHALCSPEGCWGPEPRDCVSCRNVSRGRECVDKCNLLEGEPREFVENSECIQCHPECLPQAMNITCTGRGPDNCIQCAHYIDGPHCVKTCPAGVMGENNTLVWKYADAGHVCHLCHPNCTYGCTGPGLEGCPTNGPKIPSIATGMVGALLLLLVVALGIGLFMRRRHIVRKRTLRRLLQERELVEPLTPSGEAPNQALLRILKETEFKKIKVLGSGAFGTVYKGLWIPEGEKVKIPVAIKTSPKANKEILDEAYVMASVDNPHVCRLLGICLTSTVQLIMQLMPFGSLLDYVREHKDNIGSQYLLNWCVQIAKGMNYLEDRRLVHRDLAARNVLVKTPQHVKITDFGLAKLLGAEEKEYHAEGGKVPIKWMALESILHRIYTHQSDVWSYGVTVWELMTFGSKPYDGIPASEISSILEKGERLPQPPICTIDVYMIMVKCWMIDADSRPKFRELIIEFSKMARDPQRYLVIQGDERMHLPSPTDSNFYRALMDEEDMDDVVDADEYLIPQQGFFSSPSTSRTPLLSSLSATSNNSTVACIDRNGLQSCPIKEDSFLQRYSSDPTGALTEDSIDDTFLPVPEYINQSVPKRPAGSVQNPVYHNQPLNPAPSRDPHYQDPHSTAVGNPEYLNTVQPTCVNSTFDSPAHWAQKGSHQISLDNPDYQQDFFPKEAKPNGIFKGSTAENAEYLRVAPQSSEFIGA

In general, IC50 refers to the concentration that gives 50% inhibition. Read a high IC50 as weaker potency. For the compound `CCN(c1cc2ccc1Nc1nc(ncc1Br)Nc1cc(c(N3CCC(N4CCN(C)CC4)CC3)cc1OC)CCCCCO2)S(C)(=O)=O` [Compound A30, N-(3^5-bromo-1^6-methoxy-1^4-(4-(4-methylpiperazin-1-yl)piperidin-1-yl)-6-oxa-2,4-diaza-3(2,4)-pyrimidina-1(1,3),5(1,4)-dibenzenacycloundecaphane-5^2-yl)-N-ethylmethanesulfonamide], the GI50 in data set [1] worked out at 22.4 nM. Further, the IC50 in the data set on Ba/F3_WT cell was found to be 1690 nM; at EGFR_WT, 14.9 nM; on EGFR_L858R/T790M/C797S it was 0.6 nM.

As to `COc1cc(N2CCC(N3CCN(C)CC3)CC2)c2cc1Nc1ncc(Cl)c(n1)Nc1ccc(cc1N(C)S(C)(=O)=O)OCCCC(=O)N2` [Compound A39, N-(3^5-chloro-1^6-methoxy-1^4-(4-(4-methylpiperazin-1-yl)piperidin-1-yl)-10-oxo-6-oxa-2,4,11-triaza-3(2,4)-pyrimidina-1(1,3),5(1,4)-dibenzenacycloundecaphane-5^2-yl)-N-methylmethanesulfonamide], the IC50 on EGFR_L858R/T790M/C797S was 7.1 nM. In data set [2] (from COc1cc(N2CCC(N3CCN(C)CC3)CC2)c(NC(=O)CCCBr)cc1Nc1ncc(Cl)c(Nc2ccc(O)cc2N(C)S(C)(=O)=O)n1, K2CO3/KI, DMF, 20.0 mM), the ring closure, yield of all isomers was 4.2%.

In the case of `COc1cc(N2CCC(N3CCN(C)CC3)CC2)c2cc1Nc1ncc(Cl)c(n1)Nc1ccc(cc1N(C)S(C)(=O)=O)OCCCCC2` [Compound A9, N-(3^5-chloro-1^6-methoxy-1^4-(4-(4-methylpiperazin-1-yl)piperidin-1-yl)-6-oxa-2,4-diaza-3(2,4)-pyrimidina-1(1,3),5(1,4)-dibenzenacycloundecaphane-5^2-yl)-N-methylmethanesulfonamide], in data set [1], the GI50 came out at 34 nM. The IC50 in the data set on Ba/F3_WT cell was determined as 1390 nM; on EGFR_WT, 5.9 nM; at EGFR_L858R/T790M/C797S, 0.5 nM.

As to `COc1cc(N2CCC(N(C)C)CC2)c2cc1Nc1ncc(Cl)c(n1)Nc1ccc(cc1N(C)S(C)(=O)=O)OCCCCC2` [Compound A24, N-(3^5-chloro-1^4-(4-(dimethylamino)piperidin-1-yl)-1^6-methoxy-6-oxa-2,4-diaza-3(2,4)-pyrimidina-1(1,3),5(1,4)-dibenzenacycloundecaphane-5^2-yl)-N-methylmethanesulfonamide], the GI50 in data set [1] amounted to 63 nM. The IC50 in the data set with Ba/F3_WT cell was 3330 nM; on EGFR_WT, 10.8 nM; on EGFR_L858R/T790M/C797S, 2.7 nM.

Compound `COc1cc(N2CCN(C)CC2)c2cc1Nc1ncc(Cl)c(n1)Nc1ccc(cc1S(C)(=O)=O)OCCC2` [Compound A1, 3^5-chloro-1^6-methoxy-1^4-(4-methylpiperazin-1-yl)-5^2-(methylsulfonyl)-6-oxa-2,4-diaza-3(2,4)-pyrimidina-1(1,3),5(1,4)-dibenzenacyclononaphane] showed an IC50 on EGFR_L858R/T790M/C797S of 5580 nM. In data set [2] (from COc1cc(N2CCN(C)CC2)c(CCCO)cc1Nc1ncc(Cl)c(Nc2ccc(O)cc2S(C)(=O)=O)n1, DIAD/PPh3, THF, 18.8 mM), this compound showed a ring closure, yield of all isomers of 6%. The compound further came in with a ring closure, isolated yield in data set [3] of 6%.

As for `COc1cc(N2CCC(N3CCN(C)CC3)CC2)c2cc1Nc1ncc(Br)c(n1)Nc1ccc(cc1P(C)(C)=O)OCCCCC2` [Compound A33, (3^5-bromo-1^6-methoxy-1^4-(4-(4-methylpiperazin-1-yl)piperidin-1-yl)-6-oxa-2,4-diaza-3(2,4)-pyrimidina-1(1,3),5(1,4)-dibenzenacycloundecaphane-5^2-yl)dimethylphosphine oxide], the GI50 in data set [1] worked out at 75 nM. Moreover, the IC50 worked out at 6490 nM in the data set on Ba/F3_WT cell, 413 nM on EGFR_WT and 1.8 nM at EGFR_L858R/T790M/C797S.
